Values quoted from earlier work in publication PMC8725427 (Cellulose (London, England), 2022).
pEC50, pIC50: −log10 of the molar value.

Legend:
[1] = in vitro, over a period concerned; ref Vedula et al. ([2016])
[2] = from nanoliposomal carrier, simulated lung fluid; ref Vartak et al. ([2021])
chikungunya virus = settings: read-out: IC50 for chikungunya virus; ref von Rhein et al. [2016]
[3] = test system: transmissible gastroenteritis virus; settings: read-out: IC50 for transmissible gastroenteritis virus; ref Li et al. [2020]
healthy organs = settings: doses as high as 8 g/day; ref Almosa et al. [2020]
SARS-CoV-1 = settings: read-out: EC50 for SARS-CoV-1 replication inhibition
influenza A virus = settings: read-out: IC50 for influenza A virus; ref Richart et al. [2018]
[4] = test system: vesicular stomatitis virus; settings: read-out: IC50 for vesicular stomatitis virus
HIV-1 integrase = settings: read-out: IC50 to inhibit the HIV-1 integrase; ref Mazumder et al. [1995]
influenza A virus (IAV) = settings: ref Chen et al. [2010]
[5] = carboxymethyl cellulose 2% (w/v) in PBS medium; ref Gunathilake et al. [2020b]

Nc1nc2c(ncn2COCCO)c(=O)[nH]1 [ACV, acyclovir]
Percentage of drug release [1]: ~5%

CCC(CC)COC(=O)[C@H](C)N[P@](=O)(OC[C@H]1O[C@@](C#N)(c2ccc3c(N)ncnn23)[C@H](O)[C@@H]1O)Oc1ccccc1 [Remdesivir, remdesivir]
Time to complete drug release [2]: ≤ 50 h

COc1cc(/C=C/C(=O)CC(=O)/C=C/c2ccc(O)c(OC)c2)ccc1O [curcumin]
pIC50 (chikungunya virus): 4.97
pIC50 [3]: 5.07
Lethal effect on healthy organs (healthy organs): no lethal effect
pEC50 (SARS-CoV-1): < 5.00
pIC50 (influenza A virus): ~6.70
pIC50 [4]: 5.35
pIC50 (HIV-1 integrase): 4.40
Effective dose against influenza A virus (IAV) (influenza A virus (IAV)): ~ 10 µM
Curcumin solubility in carboxymethyl cellulose medium [5]: 147 ± 5.66 µg/mL
